Measured values: article PMC5909127, “Optimization of a “bump-and-hole” approach to allele-selective BET bromodomain inhibition” (Chemical Science, 2018)

Tests used:
BRDT BD1 WT = BRDT BD1 WT (Homo sapiens, UniProt Q58F21); experiment: competitive AlphaLISA; type: binding; conditions: read-out: AlphaLISA pIC50 Value BRDT BD1 WT (converted)
BRDT BD2 WT = BRDT BD2 WT (Homo sapiens, UniProt Q58F21); experiment: competitive AlphaLISA; type: binding; conditions: read-out: AlphaLISA pIC50 Value BRDT BD2 WT (converted)
BRD2 BD1 WT [1] = target: T1, BRD2 BD1 WT (Homo sapiens, UniProt P25440); experiment: competitive AlphaLISA; type: binding; conditions: read-out: AlphaLISA pIC50 Value BRD2 BD1 WT (converted)
T1 sequence (P25440 71-176): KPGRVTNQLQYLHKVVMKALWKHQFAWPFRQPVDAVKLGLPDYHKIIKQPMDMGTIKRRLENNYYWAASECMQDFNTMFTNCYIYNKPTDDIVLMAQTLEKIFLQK

BRDT BD2 L/V = BRDT BD2 L/V (Homo sapiens, UniProt Q58F21, L306V); experiment: competitive AlphaLISA; type: binding; conditions: read-out: AlphaLISA pIC50 Value BRDT BD2 L/V (converted)
BRD3 BD1 L/V [2] = target: T2, BRD3 BD1 L/V (Homo sapiens, UniProt Q15059, L70V); experiment: competitive AlphaLISA; type: binding; conditions: read-out: AlphaLISA pIC50 Value BRD3 BD1 L/V (converted)
T2 sequence (Q15059 24-144 L70V limits assumed): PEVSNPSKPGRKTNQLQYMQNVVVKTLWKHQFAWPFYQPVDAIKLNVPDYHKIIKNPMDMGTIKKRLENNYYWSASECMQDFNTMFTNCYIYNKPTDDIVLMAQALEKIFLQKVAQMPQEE

BRD2 BD1 WT [3] = target: T1, BRD2 BD1 WT; experiment: ITC; type: binding; conditions: ITC, 30°C; read-out: Kd BRD2 BD1 WT
[4] = test system: L/V BET bromodomains (BD1 and BD2 of BRD2, BRD3 and BRD4); experiment: competitive AlphaLISA (Bio-JQ1 displacement); type: binding, human
BRD4 BD2 WT [5] = target: T3, BRD4 BD2 WT (Homo sapiens, UniProt O60885); experiment: ITC; type: binding; conditions: ITC, 30°C; read-out: Kd BRD4 BD2 WT
BRD4 BD1 WT [6] = target: T4, BRD4 BD1 WT (Homo sapiens, UniProt O60885); experiment: competitive AlphaLISA; type: binding; conditions: read-out: AlphaLISA pIC50 Value BRD4 BD1 WT (converted)
BRD4 BD2 WT [7] = target: T3, BRD4 BD2 WT; experiment: competitive AlphaLISA; type: binding; conditions: read-out: AlphaLISA pIC50 Value BRD4 BD2 WT (converted)
BRD3 BD2 WT [8] = target: T5, BRD3 BD2 WT (Homo sapiens, UniProt Q15059); experiment: competitive AlphaLISA; type: binding; conditions: read-out: AlphaLISA pIC50 Value BRD3 BD2 WT (converted)
T5 sequence (Q15059 306-416): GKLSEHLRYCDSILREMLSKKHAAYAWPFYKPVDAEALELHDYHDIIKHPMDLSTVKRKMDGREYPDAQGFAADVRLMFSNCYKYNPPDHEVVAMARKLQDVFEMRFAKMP

BRD3 BD2 L/V [9] = target: T6, BRD3 BD2 L/V (Homo sapiens, UniProt Q15059, L345V); experiment: competitive AlphaLISA; type: binding; conditions: read-out: AlphaLISA pIC50 Value BRD3 BD2 L/V (converted)
T6 sequence (Q15059 306-416 L345V limits assumed): as the sequence (Q15059 306-416) above, with L40V counted along it

BRD2 BD2 L/V [10] = target: T7, BRD2 BD2 L/V (Homo sapiens, UniProt P25440, L383V); experiment: ITC; type: binding
T7 sequence (P25440 344-455 L383V): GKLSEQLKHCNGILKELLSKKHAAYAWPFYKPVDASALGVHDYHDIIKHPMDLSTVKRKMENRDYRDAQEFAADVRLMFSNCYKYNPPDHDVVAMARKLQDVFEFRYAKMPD

BRD4 BD1 WT [11] = target: T4, BRD4 BD1 WT; experiment: ITC; type: binding; conditions: ITC, 30°C; read-out: Kd BRD4 BD1 WT
BRD2 BD2 WT [12] = target: T8, BRD2 BD2 WT (Homo sapiens, UniProt P25440); experiment: ITC; type: binding; conditions: ITC, 30°C; read-out: Kd BRD2 BD2 WT
T8 sequence (P25440 344-455): as the sequence (P25440 344-455 L383V) above, with V40L counted along it

[13] = test system: L/V somatic BET bromodomains; experiment: ITC
BRD4 BD1 L/V [14] = target: T9, BRD4 BD1 L/V (Homo sapiens, UniProt O60885, L94V); experiment: competitive AlphaLISA; type: binding; conditions: read-out: AlphaLISA pIC50 Value BRD4 BD1 L/V (converted)
BRD3 BD1 WT [15] = target: T10, BRD3 BD1 WT (Homo sapiens, UniProt Q15059); experiment: competitive AlphaLISA; type: binding; conditions: read-out: AlphaLISA pIC50 Value BRD3 BD1 WT (converted)
T10 sequence (Q15059 24-144): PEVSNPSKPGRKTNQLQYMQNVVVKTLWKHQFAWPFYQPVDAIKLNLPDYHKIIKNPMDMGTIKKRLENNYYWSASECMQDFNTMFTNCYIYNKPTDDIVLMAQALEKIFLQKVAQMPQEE

BRD3 BD1 L/V [16] = target: T2, BRD3 BD1 L/V; experiment: ITC; type: binding
in vitro [17] = conditions: BALB/c, mouse, plasma, pH 7.4
BRD4 BD1 L/V [18] = target: T9, BRD4 BD1 L/V; experiment: ITC; type: binding
BRD2 BD1 L/V [19] = target: T11, BRD2 BD1 L/V (Homo sapiens, UniProt P25440, L110V); experiment: competitive AlphaLISA; type: binding; conditions: read-out: AlphaLISA pIC50 Value BRD2 BD1 L/V (converted)
T11 sequence (P25440 71-176 L110V limits assumed): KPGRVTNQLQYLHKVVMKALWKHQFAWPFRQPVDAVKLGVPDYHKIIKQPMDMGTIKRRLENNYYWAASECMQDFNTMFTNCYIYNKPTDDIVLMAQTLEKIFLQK

in vitro [20] = conditions: PAMPA, pH 7.4
BRD3 BD1 WT [21] = target: T10, BRD3 BD1 WT; experiment: ITC; type: binding; conditions: ITC, 30°C; read-out: Kd BRD3 BD1 WT
BRD2 BD2 WT [22] = target: T8, BRD2 BD2 WT; experiment: competitive AlphaLISA; type: binding; conditions: read-out: AlphaLISA pIC50 Value BRD2 BD2 WT (converted)
BRD3 BD2 WT [23] = target: T5, BRD3 BD2 WT; experiment: ITC; type: binding; conditions: ITC, 30°C; read-out: Kd BRD3 BD2 WT
BRD2 BD1 L/V [24] = target: T11, BRD2 BD1 L/V; experiment: ITC; type: binding
BRD4 BD2 L/V [25] = target: T12, BRD4 BD2 L/V (Homo sapiens, UniProt O60885, L387V); experiment: competitive AlphaLISA; type: binding; conditions: read-out: AlphaLISA pIC50 Value BRD4 BD2 L/V (converted)
[26] = target: WT BET bromodomains (BD1 and BD2 of BRD2, BRD3 and BRD4); experiment: competitive AlphaLISA (Bio-JQ1 displacement); type: binding, human; conditions: mean and SD of all somatic bromodomains; active enantiomer concentration
BRD4 BD2 L/V [27] = target: T12, BRD4 BD2 L/V; experiment: ITC; type: binding
BRD3 BD2 L/V [28] = target: T6, BRD3 BD2 L/V; experiment: ITC; type: binding
BRD2 BD2 L/V [29] = target: T7, BRD2 BD2 L/V; experiment: competitive AlphaLISA; type: binding; conditions: read-out: AlphaLISA pIC50 Value BRD2 BD2 L/V (converted)
[30] = test system: WT somatic BET bromodomains; experiment: ITC
[31] = mean and SD of all somatic bromodomains

Work on `CCNC(=O)[C@H](CC)[C@@H]1N=C(c2ccc(Cl)cc2)c2cc(OC)ccc2-n2c(C)nnc21` (relative stereo) [Compound 17] yielded an IC50 (BRDT BD1 WT) of 63.1 µM, an IC50 (BRDT BD2 WT) of 79.4 µM and an IC50 (BRD2 BD1 WT [1]) of 63.1 µM. The IC50 (BRDT BD2 L/V) was 5.01 µM, the IC50 (BRD3 BD1 L/V [2]) was 0.501 µM and the Kd (BRD2 BD1 WT [3]) was > 60 µM. The “AlphaLISA pIC50 ± SD Δ” value ([4]; L/V minus WT) was 1.5 ± 0.2, the “AlphaLISA pIC50 ± SD L/V” value ([4]; mean and SD of all somatic bromodomains, active enantiomer concentration) was 5.9 ± 0.3 and the Kd (BRD4 BD2 WT [5]) was > 60 µM. For the same compound, the IC50 (BRD4 BD1 WT [6]) was 50.1 µM, the IC50 (BRD4 BD2 WT [7]) was 63.1 µM and the IC50 (BRD3 BD2 WT [8]) was 39.8 µM. The IC50 (BRD3 BD2 L/V [9]) was 0.794 µM, the “ΔH BRD2 BD2 L/V” value (BRD2 BD2 L/V [10]; ITC) was -5.3 kcal/mol and the “N BRD2 BD2 L/V” value (BRD2 BD2 L/V [10]; ITC stoichiometry) was 0.94. The Kd (BRD2 BD2 L/V [10]; ITC, 30°C, read-out: Kd BRD2 BD2 L/V) was 1.3 µM, the Kd (BRD4 BD1 WT [11]) was > 60 µM and the Kd (BRD2 BD2 WT [12]) was > 60 µM. For the same compound, the “ITC pKd ± SD Δ” value ([13]; L/V minus WT) was >1.8 ± 0.2, the “ITC pKd ± SD L/V” value [13, 31] was 6.0 ± 0.2 and the IC50 (BRD4 BD1 L/V [14]) was 2 µM. For the same compound, the IC50 (BRD3 BD1 WT [15]) was 31.6 µM, the “ΔH BRD3 BD1 L/V” value (BRD3 BD1 L/V [16]; ITC) was -9.4 kcal/mol and the “N BRD3 BD1 L/V” value (BRD3 BD1 L/V [16]; ITC stoichiometry) was 1.07. For the same compound, the Kd (BRD3 BD1 L/V [16]; ITC, 30°C, read-out: Kd BRD3 BD1 L/V) was 0.74 µM, the half-life at 50 µM (in vitro [17]) was > 3 h and the “ΔH BRD4 BD1 L/V” value (BRD4 BD1 L/V [18]; ITC) was -5.9 kcal/mol. For the same compound, the “N BRD4 BD1 L/V” value (BRD4 BD1 L/V [18]; ITC stoichiometry) was 0.99, the Kd (BRD4 BD1 L/V [18]; ITC, 30°C, read-out: Kd BRD4 BD1 L/V) was 1.6 µM and the IC50 (BRD2 BD1 L/V [19]) was 3.16 µM. The Papp (in vitro [20]) was 4.5 ×10⁻⁶ cm/s, the Kd (BRD3 BD1 WT [21]) was > 60 µM and the IC50 (BRD2 BD2 WT [22]) was 25.1 µM. The Kd (BRD3 BD2 WT [23]) was > 60 µM, the “ΔH BRD2 BD1 L/V” value (BRD2 BD1 L/V [24]; ITC) was -10.2 kcal/mol and the “N BRD2 BD1 L/V” value (BRD2 BD1 L/V [24]; ITC stoichiometry) was 0.97. For the same compound, the Kd (BRD2 BD1 L/V [24]; ITC, 30°C, read-out: Kd BRD2 BD1 L/V) was 0.96 µM, the IC50 (BRD4 BD2 L/V [25]) was 2 µM and the “AlphaLISA pIC50 ± SD WT” value [26] was 4.4 ± 0.1. The “ΔH BRD4 BD2 L/V” value (BRD4 BD2 L/V [27]; ITC) was -3.7 kcal/mol, the “N BRD4 BD2 L/V” value (BRD4 BD2 L/V [27]; ITC stoichiometry) was 0.99 and the Kd (BRD4 BD2 L/V [27]; ITC, 30°C, read-out: Kd BRD4 BD2 L/V) was 1 µM. For the same compound, the “ΔH BRD3 BD2 L/V” value (BRD3 BD2 L/V [28]; ITC) was -4.7 kcal/mol, the “N BRD3 BD2 L/V” value (BRD3 BD2 L/V [28]; ITC stoichiometry) was 0.68 and the Kd (BRD3 BD2 L/V [28]; ITC, 30°C, read-out: Kd BRD3 BD2 L/V) was 0.61 ± 0.09 µM. For the same compound, the IC50 (BRD2 BD2 L/V [29]) was 1.26 µM, the “binding to any WT BET bromodomain” value ([30]; ITC) was “no detectable binding” and the “ITC pKd ± SD WT” value [30, 31] was <4.2.
